What was measured:
AfCYP51A [1] = biological target: AfCYP51A; set-up: method as in PMID 26459890; conditions: type II binding, cited from earlier work
AfCYP51A [2] = conditions: cited from earlier work
[3] = biological target: T1, wild type ScErg11p6 × His (Saccharomyces cerevisiae, UniProt P10614); experiment: Type II difference spectra triazole binding to affinity purified wild type enzyme; conditions: for Hill number / IC50 / Kd: wild-type enzyme 1 μM; for IC50 / Kd: Hill equation fit; for IC50: IC50 value is denoted as [Azole]0.5; for Kd: standard error in brackets; for ΔAmax of type II difference spectra: wild-type enzyme, Ni-NTA affinity purified
T1 construct: full-length Saccharomyces cerevisiae hexahistidine-tagged Erg11p (ScErg11p6 × His); made in house; host or cells: Saccharomyces cerevisiae strain AD3ΔScErg11p (overexpression from the PDR5 locus, native ERG11 deleted)
Description: (§1) Ni-NTA affinity purified mutant and wild type ScErg11p6 × His preparations (1 μM) were used to detect and quantitate type II azole binding. The spectral shift of the Soret peak from 417 nm to 421–424 nm in cytochrome P450s is also detected by the type II difference spectra. This change is associated with the replacement of a water molecule coordinated to the heme iron with the azole heterocycle. Type II difference spectra were obtained for FLC, VCZ, ITC and PCZ binding to both mutant enzymes. The binding of FLC is shown as an example (Fig. 2b). The type II difference spectra for the mutant enzymes were less intense than for the wild type enzyme. They gave 2–3-fold smaller differences in absorbance (ΔAmax), with peaks shifted from 428 nm for wild type enzyme to 424–425 nm for the mutant enzymes plus less well-defined troughs between 406–410 nm (Supplementary Table S3). […] These values indicate tight binding for each drug tested.
(§2) The concentration of functional cytochrome P450 for drug binding studies was determined using the carbon monoxide binding spectra according to the protocol described by Guengerich et al.[33]. Affinity purified ScErg11p6 × His used for spectroscopic assays was eluted using affinity purification buffer containing 50 mM L-histidine instead of imidazole. L-histidine was removed from the sample by washing the enzyme with solubilisation buffer containing 16 mM DM using 50 kDa molecular-weight cut-off Amicon Ultra-4 centrifugal filters (Merck Millipore Ltd, Cork, Ireland). The removal of L-histidine was checked by taking the absolute spectra of the sample using the Ultrospec™ 6300 pro UV/Visible spectrophotometer. The heme peak for wild type protein with no ligand was at ~417 nm. With L-histidine bound the peak was detected at ~420 nm. Enzyme concentration was determined by saturating the sample cuvette with CO gas prior to the addition of sodium dithionite. The reference cuvette containing the same amount of enzyme was treated with sodium dithionite only. The P450 concentration was determined by measuring the difference in absorbance between 446 and 490 nm and using the extinction coefficient of 91 mM^−1 cm^−1 [58]. Absorption spectra were recorded with a Cary 1 Bio UV-visible spectrophotometer using 10 mm path UV transparent plastic cuvettes (GE Healthcare Life Sciences, UK). Difference spectra were measured using 1 μM ScErg11p6 × His wild type or Y140F/H enzyme titrated with the triazole drugs ITC, PCZ, VCZ and FLC. Triazole drugs dissolved in DMSO were added to the sample cuvette, with the same amount of DMSO added to the reference cuvette. The total amount of DMSO was <2% of the total volume in the cuvette. Difference spectra between 350–500 nm were recorded and the trough-peak absorbance changes were used to plot binding curves. The dissociation constant Kd for type II binding of triazole drugs was calculated using GraphPad Prism 6 Software (GraphPad Prism, San Diego, CA) by applying the Hill equation using the formula ΔA = ΔAmax [Azole]^n/([Azole]^n + Kd^n), with ΔAmax being the maximum change in absorbance and [Azole] the azole concentration.

AD3ΔScErg11p_Y140F = experiment: Broth microdilution MIC80, strain overexpressing Y140F enzyme; format: cell-based, Saccharomyces cerevisiae; conditions: for MIC80: Saccharomyces cerevisiae, 48 h, pH 6.8; for fold lower susceptibility (MIC80) than strain overexpressing wild type ScErg11p6 × His: Y140F strain vs wild type strain
Description: (§3) Susceptibilities to triazole drugs of S. cerevisiae AD3Δ strains overexpressing Erg11p6 × His Y140F/H, but with the native ERG11 deleted, were measured as liquid MIC80 values (Supplementary Table S2). Overexpression of ScErg11p6 × His Y140F in the AD3ΔScErg11p_Y140F strain conferred 2-fold lower susceptibility to FLC than the strain overexpressing wild type ScErg11p6 × His i.e. MIC80 of 4.0 μg/ml and 2.1 μg/ml, respectively. The same mutant conferred a 1.7-fold reduction in susceptibility to VCZ. The MIC80 values were 0.42 μg/ml for the strain overexpressing ScErg11p6 × His Y140F and 0.25 μg/ml for the strain overexpressing wild type ScErg11p6 × His.
The S. cerevisiae AD2Δ host was used to create the strains used in this study. The strain was made by deletion of the HIS1 gene from the previously described ADΔ[49] strain. ADΔ and AD2Δ lack 7 major ATP-binding cassette transporters and the PDR3 gene. Both strains have the gain-of function pdr1–3 mutation in the PDR1 transcriptional regulator gene to provide constitutive overexpression of ScErg11p6 × His from the PDR5 locus. Yeast strains were grown on YPD medium: 1% (wt/vol) Bacto-yeast extract (BD Difco™ Laboratories Inc, Franklin Lakes, NJ), 2% (wt/vol) Bacto-peptone (BD Difco™) and 2% (wt/vol) glucose. Synthetic defined (SD) medium was used for selection of transformants. It contained 2% (wt/vol) glucose, 0.67% (wt/vol) yeast nitrogen base without amino acids (BD Difco™), 2% (wt/vol) agar (Oxoid Ltd., Hampshire, UK) and either uracil drop-out (Qbiogene, Irvine, CA) or histidine drop-out (Formedium™, Norfolk, UK) complete supplement mixture. Liquid SD media with complete supplement mixture (Formedium™) containing 10 mM MES and 20 mM HEPES buffered with TRIS to pH 6.8 was used for MIC80 determinations.
(§4) The susceptibilities of strains overexpressing wild type ScErg11p6 × His and ScErg11p6 × His Y140F/H to triazole drugs were measured as MIC80 values using broth microdilution assays. The MIC80s were defined as 80% growth inhibition compared to no drug controls because triazole drugs are fungistatic rather than fungicidal and can give trailing growth. MIC80s to FLC, ITC and VCZ were determined in 96-well microtiter plates using SD buffered to pH 6.8 instead of RPMI[50]. Cells were seeded at OD600nm = 0.005 (1.5 × 10^4 CFU) and the plates were incubated in 30 °C with shaking at 200 rpm for 48 hrs. Cell growth was assessed by measuring the OD600nm of wells using a BioTek Synergy™ 2 multi-mode plate reader (BioTek Instruments, Vermont, USA). Each MIC80 was determined using triplicate measurements for three clones of each strain in three separate experiments.

ScErg11p6 × His Y140F = biological target: T2, ScErg11p6 × His Y140F (Saccharomyces cerevisiae, UniProt P10614, Y140F); experiment: Type II difference spectra triazole binding to affinity purified Y140F mutant enzyme; conditions: for Hill number / IC50 / Kd: Y140F enzyme 1 μM; for IC50 / Kd: Hill equation fit; for IC50: IC50 value is denoted as [Azole]0.5; for Kd: standard error in brackets; for ΔAmax of type II difference spectra: Y140F enzyme, Ni-NTA affinity purified
T2 construct: full-length Saccharomyces cerevisiae hexahistidine-tagged Erg11p (ScErg11p6 × His); made in house; host or cells: Saccharomyces cerevisiae strain AD3ΔScErg11_Y140F (native ERG11 deleted)
Description: as §1, §2

AfCYP51B [4] = biological target: AfCYP51B; set-up: method as in PMID 26459890; conditions: type II binding, Ni-NTA affinity purified enzyme; cited from earlier work
[5] = tested on: AD3ΔScErg11p (strain overexpressing wild type ScErg11p6 × His); experiment: Broth microdilution MIC80, strain overexpressing wild type enzyme; format: cell-based; conditions: Saccharomyces cerevisiae, 48 h, pH 6.8
Description: as §3
The S. cerevisiae AD2Δ host was used to create the strains used in this study. The strain was made by deletion of the HIS1 gene from the previously described ADΔ[49] strain. ADΔ and AD2Δ lack 7 major ATP-binding cassette transporters and the PDR3 gene. Both strains have the gain-of function pdr1–3 mutation in the PDR1 transcriptional regulator gene to provide constitutive overexpression of ScErg11p6 × His from the PDR5 locus. Yeast strains were grown on YPD medium: 1% (wt/vol) Bacto-yeast extract (BD Difco™ Laboratories Inc, Franklin Lakes, NJ), 2% (wt/vol) Bacto-peptone (BD Difco™) and 2% (wt/vol) glucose. Synthetic defined (SD) medium was used for selection of transformants. […]
as §4, with “The MIC80s were defined as 80% growth inhibition compared to no drug controls because triazole drugs are fungistatic rather than fungicidal and can give trailing growth.” left out, “Cells were seeded at OD600nm = 0.005 (1.5 × 10^4 CFU) and the plates were incubated in 30 °C with shaking at 200 rpm for 48 hrs.” left out

AD3ΔScErg11p_Y140H = experiment: Broth microdilution MIC80, strain overexpressing Y140H enzyme; format: cell-based; conditions: Saccharomyces cerevisiae, 48 h, pH 6.8, 80% growth inhibition, SD medium pH 6.8, 30 °C, native ERG11 deleted
Description: as §3
The S. cerevisiae AD2Δ host was used to create the strains used in this study. The strain was made by deletion of the HIS1 gene from the previously described ADΔ[49] strain. […]
as §4, with “The MIC80s were defined as 80% growth inhibition compared to no drug controls because triazole drugs are fungistatic rather than fungicidal and can give trailing growth.” left out, “Cells were seeded at OD600nm = 0.005 (1.5 × 10^4 CFU) and the plates were incubated in 30 °C with shaking at 200 rpm for 48 hrs.” left out

[6] = tested on: C. albicans Erg11p (CaErg11p) Y132F/H; conditions: Y132F/H mutations detected in clinical isolates; cited from earlier work
ScErg11p6 × His Y140H = biological target: T3, ScErg11p6 × His Y140H (Saccharomyces cerevisiae, UniProt P10614, Y140H); experiment: Type II difference spectra triazole binding to affinity purified Y140H mutant enzyme; conditions: for Hill number / IC50 / Kd: Y140H enzyme 1 μM; for IC50 / Kd: Hill equation fit; for IC50: IC50 value is denoted as [Azole]0.5; for Kd: standard error in brackets; for ΔAmax of type II difference spectra: Y140H enzyme, Ni-NTA affinity purified
T3 construct: full-length Saccharomyces cerevisiae hexahistidine-tagged Erg11p (ScErg11p6 × His); made in house; host or cells: Saccharomyces cerevisiae strain AD3ΔScErg11_Y140H (native ERG11 deleted)
Description: as §1, §2

AfCYP51B [7] = tested on: AfCYP51B; set-up: method as in PMID 26459890; conditions: membrane preparations, enzyme heterologously expressed in E. coli; cited from earlier work

T1 sequence (P10614 whole entry): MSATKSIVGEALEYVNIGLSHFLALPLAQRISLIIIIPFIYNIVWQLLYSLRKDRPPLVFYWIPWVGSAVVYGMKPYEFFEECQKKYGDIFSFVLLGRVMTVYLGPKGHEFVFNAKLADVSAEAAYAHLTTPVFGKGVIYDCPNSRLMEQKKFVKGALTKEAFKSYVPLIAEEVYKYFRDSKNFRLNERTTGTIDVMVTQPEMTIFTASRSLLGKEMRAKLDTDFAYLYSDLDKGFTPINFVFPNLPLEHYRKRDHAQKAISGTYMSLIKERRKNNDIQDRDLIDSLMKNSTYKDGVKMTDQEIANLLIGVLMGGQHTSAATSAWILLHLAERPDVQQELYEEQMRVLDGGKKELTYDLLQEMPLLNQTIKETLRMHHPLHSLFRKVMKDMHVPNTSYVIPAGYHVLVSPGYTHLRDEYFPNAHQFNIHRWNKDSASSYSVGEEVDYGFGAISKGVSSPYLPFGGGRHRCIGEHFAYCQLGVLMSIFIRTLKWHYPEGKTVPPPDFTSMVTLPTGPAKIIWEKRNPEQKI
T2 sequence (P10614 whole entry Y140F): as the sequence (P10614 whole entry) above, with Y140F counted along it
T3 sequence (P10614 whole entry Y140H): as the sequence (P10614 whole entry) above, with Y140H counted along it

SMILES | Hill number [3] | IC50 [3] [nM] | Kd [3] [nM] | ΔAmax of type II difference spectra [3] | MIC80 (AD3ΔScErg11p_Y140F) [µg/mL] | fold lower susceptibility (MIC80) than strain overexpressing wild type ScErg11p6 × His (AD3ΔScErg11p_Y140F) [fold] | Hill number (ScErg11p6 × His Y140F) | IC50 (ScErg11p6 × His Y140F) [nM] | Kd (ScErg11p6 × His Y140F) [nM] | ΔAmax of type II difference spectra (ScErg11p6 × His Y140F) | MIC80 [5] [µg/mL] | MIC80 (AD3ΔScErg11p_Y140H) [µg/mL] | Hill number (ScErg11p6 × His Y140H) | IC50 (ScErg11p6 × His Y140H) [nM] | Kd (ScErg11p6 × His Y140H) [nM] | ΔAmax of type II difference spectra (ScErg11p6 × His Y140H) | other results
OC(Cn1cncn1)(Cn1cncn1)c1ccc(F)cc1F [FLC, fluconazole] | 3.0 | 430 | 74 | 0.048 | 4 | 2 | 1.86 | 330 | 130 | 0.023 | 2.1 | 3.4 | 1.68 | 270 | 110 | 0.016 | Kd (AfCYP51A [1]; Ni-NTA affinity purified enzyme): 12000 nM; fold difference in Kd values AfCYP51A vs AfCYP51B (AfCYP51A [1]; Ni-NTA affinity purified enzymes): 3 fold; IC50 (AfCYP51A [2]; membrane preparations, enzyme heterologously expressed in E. coli): 17000 nM; fold higher IC50 for AfCYP51A compared to AfCYP51B (AfCYP51A [2]; reconstituted membrane assay): 34 fold; Kd (AfCYP51B [4]): 4000 nM; fold increase in resistance [6]: 4 fold; IC50 (AfCYP51B [7]): 500 nM
C[C@@H](c1ncncc1F)[C@](O)(Cn1cncn1)c1ccc(F)cc1F [VCZ, voriconazole] | 2.7 | 400 | 82 | 0.051 | 0.42 | 1.7 | 2.60 | 270 | 30 | 0.019 | 0.25 | 0.29 | 1.23 | 290 | 220 | 0.018 | 
